Source: PMC7887804 (Chemical Research in Toxicology, 2020)
Like-named read-outs stand apart in the source and are kept apart here. Marks after values point to notes of the source that are not given here.

How the values were obtained:
[1] = In vitro metabolism study; assay type: in vitro ADME, human; conditions: for conversion in incubations with and without the cofactor mix: RLS9 and HLS9, data not shown; for measured concentration at t = 0 lower than the added 1 μM: S9 incubation tubes, suggests binding to the plastic walls; for CLint,u: human (H), CLintapp corrected for the fraction unbound in the incubation; for CLintapp (apparent in vitro intrinsic clearance): human liver S9 (H), 1 μM substrate
[2] = In vitro metabolism study; assay type: in vitro ADME, rat; conditions: for CLint,u: rat (R), CLintapp corrected for the fraction unbound in the incubation; for CLintapp (apparent in vitro intrinsic clearance): rat liver S9 (R), 1 μM substrate
thyroid peroxidase (TPO) [3] = assay: QIVIVE oral equivalent dose related to TPO inhibition; set-up: species or system human; conditions: humans; for oral equivalent dose related to TPO inhibition: Cmax equal to AC50 in NCCT_TPO_AUR_dn; for margin between human exposure and oral equivalent dose related to TPO inhibition: highest exposure estimates
[4] = cited from earlier work; for pKa: A, acid, ref Tsao [40]; for logP: octanol/water, ref PubChem
[5] = cited from earlier work
[6] = positive hit calls, ToxCast summary data; cited from earlier work
[7] = system: human thyroid peroxidase (TPO); conditions: ToxCast, cited from earlier work; for activity in the TPO assay: NCCT_TPO_AUR_dn
thyroid peroxidase (TPO) [8] = assay: QIVIVE oral equivalent dose related to TPO inhibition; set-up: species or system rat; conditions: rats, Cmax equal to AC50 in NCCT_TPO_AUR_dn
[9] = cited from earlier work; remark: listed apart in the source
[10] = 90 day toxicity study, mainly effects on hematological parameters; cited from earlier work
[11] = developmental toxicity study; cited from earlier work
[12] = rats, 100 mg/kg bw [14C]-labelled, parent compound in plasma up to 24 h; cited from earlier work
[13] = rats ♀ and ♂, 14 mg/kg bw, mean
[14] = rats ♀ and ♂, 135 mg/kg bw, mean
[15] = rats ♀, 14 mg/kg bw, mean (min–max)
[16] = rats ♀, 135 mg/kg bw, mean (min–max)
[17] = rats ♂, 14 mg/kg bw, mean (min–max)
[18] = rats ♂, 135 mg/kg bw, mean (min–max)
[19] = humans ♀ and ♂, 1.4 mg/kg bw, mean
[20] = humans ♀ and ♂, 14 mg/kg bw, mean
[21] = humans ♀, 1.4 mg/kg bw, mean (min–max)
[22] = humans ♀, 14 mg/kg bw, mean (min–max)
[23] = humans ♂, 1.4 mg/kg bw, mean (min–max)
[24] = humans ♂, 14 mg/kg bw, mean (min–max)
[25] = rats ♂, 17.5 mg/kg bw, mean (min–max)

CCCCCCCCCCCCOC(=O)c1cc(O)c(O)c(O)c1 [dodecyl gallate]
conversion in incubations with and without the cofactor mix [1]: to some extent
measured concentration at t = 0 lower than the added 1 μM [1]: up to 2 fold
CLint,u [1]: 8800 μL/min/mg of S9 protein
CLintapp (apparent in vitro intrinsic clearance) [1]: 88 μL/min/mg of S9 protein
CLint,u [2]: 11 600 μL/min/mg of S9 protein
CLintapp (apparent in vitro intrinsic clearance) [2]: 232 μL/min/mg of S9 protein
oral equivalent dose related to TPO inhibition (thyroid peroxidase (TPO) [3]): 69 mg/kg bw
margin between human exposure and oral equivalent dose related to TPO inhibition (thyroid peroxidase (TPO) [3]): ≥ 122 fold
pKa [4]: 7.93 (A)
logP [4]: 6.37
reported in vivo Cmax ([5]; rats, 10 mg/kg bw oral, blood collected only 10 min after dosing): no detectable plasma concentrations
number of ToxCast assays in which the compound is active out of assays tested [6]: 210 out of 441
activity in the TPO assay [7]: active

CCCOC(=O)c1cc(O)c(O)c(O)c1 [propyl gallate]
CLint,u [1]: 437 μL/min/mg of S9 protein
CLintapp (apparent in vitro intrinsic clearance) [1]: 428 μL/min/mg of S9 protein
CLint,u [2]: 835 μL/min/mg of S9 protein
CLintapp (apparent in vitro intrinsic clearance) [2]: 818 μL/min/mg of S9 protein
oral equivalent dose related to TPO inhibition (thyroid peroxidase (TPO) [3]): 6.3 mg/kg bw
oral equivalent dose related to TPO inhibition (thyroid peroxidase (TPO) [8]): 7.9 mg/kg bw
logP [4]: 1.87
reported in vivo AUC [5, 13]: ♀ and ♂ 95 n = 12 ng*hr/mL
reported in vivo Cmax [5, 13]: ♀ and ♂ 192 n = 12 ng/mL
reported in vivo AUC [5, 14]: ♀ and ♂ 1624 n = 16 ng*hr/mL
reported in vivo Cmax [5, 14]: ♀ and ♂ 4753 n = 16 ng/mL
reported in vivo AUC [5, 15]: ♀ 66 (39–100) n = 6 ng*hr/mL
reported in vivo Cmax [5, 15]: ♀ 238 (68–462) n = 6 ng/mL
reported in vivo AUC [5, 16]: ♀ 1164 (321–3451) n = 8 ng*hr/mL
reported in vivo Cmax [5, 16]: ♀ 4246 (884–12 825) n = 8 ng/mL
reported in vivo AUC [5, 17]: ♂ 123 (62–217) n = 6 ng*hr/mL
reported in vivo Cmax [5, 17]: ♂ 145 (67–334) n = 6 ng/mL
reported in vivo AUC [5, 18]: ♂ 2085 (660–4119) n = 8 ng*hr/mL
reported in vivo Cmax [5, 18]: ♂ 5260 (1635–11085) n = 8 ng/mL
reported in vivo AUC [9, 19]: ♀ and ♂ 21 n = 11 ng*hr/mL
reported in vivo Cmax [9, 19]: ♀ and ♂ 13 n = 11 ng/mL
reported in vivo AUC [9, 20]: ♀ and ♂ 346 n = 10 ng*hr/mL
reported in vivo Cmax [9, 20]: ♀ and ♂ 152 n = 10 ng/mL
reported in vivo AUC [9, 21]: ♀ 19 (13-21) n = 4 ng*hr/mL
reported in vivo Cmax [9, 21]: ♀ 12 (11–14) n = 4 ng/mL
reported in vivo AUC [9, 22]: ♀ 290 (25–425) n = 5 ng*hr/mL
reported in vivo Cmax [9, 22]: ♀ 150 (10–240) n = 5 ng/mL
reported in vivo AUC [9, 23]: ♂ 21 (9.4–42) n = 7 ng*hr/mL
reported in vivo Cmax [9, 23]: ♂ 14 (4–33) n = 7 ng/mL
reported in vivo AUC [9, 24]: ♂ 402 (290–587) n = 5 ng*hr/mL
reported in vivo Cmax [9, 24]: ♂ 155 (84–208) n = 5 ng/mL
number of ToxCast assays in which the compound is active out of assays tested [6]: 131 out of 888
AC50 ([7]; read-out: AC50 in the NCCT_TPO_AUR_dn assay, TPO inhibition): 580 nM
NOAEL [10]: 150 mg/kg bw/day
NOAEL [11]: 300 mg/kg bw/day

COC(=O)c1ccc(O)cc1 [methylparaben]
conversion in incubations with and without the cofactor mix [1]: occurs both in the presence and absence of the cofactor mix
CLint,u [1]: 121 μL/min/mg of S9 protein
CLintapp (apparent in vitro intrinsic clearance) [1]: 102 μL/min/mg of S9 protein
CLint,u [2]: 642 μL/min/mg of S9 protein
CLintapp (apparent in vitro intrinsic clearance) [2]: 629 μL/min/mg of S9 protein
faster conversion (CLint) by RLS9 compared with HLS9 ([2]; rat vs human liver S9): 6 fold
reported in vivo Cmax [12]: No parent compound was detected
number of ToxCast assays in which the compound is active out of assays tested [6]: 24 out of 886

CCCCCCCCOC(=O)c1cc(O)c(O)c(O)c1 [octyl gallate]
conversion in incubations with and without the cofactor mix [1]: to some extent
measured concentration at t = 0 lower than the added 1 μM [1]: up to 2 fold
CLint,u [1]: 3999 μL/min/mg of S9 protein
CLintapp (apparent in vitro intrinsic clearance) [1]: 3119 μL/min/mg of S9 protein
CLint,u [2]: 4695 μL/min/mg of S9 protein
CLintapp (apparent in vitro intrinsic clearance) [2]: 3662 μL/min/mg of S9 protein
oral equivalent dose related to TPO inhibition (thyroid peroxidase (TPO) [3]): 99 mg/kg bw
margin between human exposure and oral equivalent dose related to TPO inhibition (thyroid peroxidase (TPO) [3]): at least 106 fold
pKa [4]: 7.94 (A)
logP [4]: 4.33
reported in vivo Cmax ([5]; rats ♀, 17.5 mg/kg bw, mean): ♀ 20 (range NR)^a ng/mL
reported in vivo AUC [5, 25]: ♂ 3.7 (1.4–7.8) n = 6 ng*hr/mL
reported in vivo Cmax [5, 25]: ♂ 19 (9–41) n = 6 ng/mL
number of ToxCast assays in which the compound is active out of assays tested [6]: 355 out of 982
activity in the TPO assay [7]: active
